Data published in the NIST ThermoML archive (doi:10.1021/je0496645).

Settings: 101.33 kPa, Liquid; for viscosity: Capillary tube (Ostwald / Ubbelohde) method; for mass density: Vibrating tube method

CCCCC(CC)COP(=O)(O)OCC(CC)CCCC (stereo not given) [bis(2-ethylhexyl) hydrogen phosphate]
Settings	mass density [kg/m3]	viscosity [mPa·s]
303.15 K	964	21.22
313.15 K	957	13.32
323.15 K	949.5	8.559
333.15 K	942	5.83
343.15 K	934.5	4.089
